Measured values reported in patent US7465724B2, “Bis-pyrrolo[2,1-c][1,4]benzodiazepine-anthraquinone conjugates and a process for the preparation thereof” (Council of Scientific and Industrial Research, priority 2006, dated 2008).

Experiments:
Type in all cases: cell-based, human
Conditions in all cases: 48 h continuous drug exposure; dose to inhibit cell growth by 50% vs untreated cell controls
A2780 = assay: In vitro cytotoxicity, SRB assay, A2780
Method: (§1) Cytotoxicity: Compounds Va-c have been evaluated for the primary anticancer activity in selected human cancer cell lines. For each compound, dose response curves against each cell line were measured at a minimum of five concentrations at 10 fold dilutions. A protocol of 48 h continuous drug exposure was used and a sulforhodamine B (SRB) protein assay was used to estimate cell viability or growth. The concentration causing 50% cell growth inhibition compared with the control has been calculated.

Colo205 = assay: In vitro cytotoxicity, SRB assay, Colo205
Method: as §1

ZR-75-1 = assay: In vitro cytotoxicity, SRB assay, ZR-75-1
Method: as §1

PC3 = assay: In vitro cytotoxicity, SRB assay, PC3
Method: as §1

Hop62 = assay: In vitro cytotoxicity, SRB assay, Hop62
Method: as §1

SiHa = assay: In vitro cytotoxicity, SRB assay, SiHa
Method: as §1

MCF7 = assay: In vitro cytotoxicity, SRB assay, MCF7
Method: as §1

SMILES | IC50 (A2780) | IC50 (Colo205) | IC50 (ZR-75-1) | IC50 (PC3) | IC50 (Hop62) | IC50 (SiHa) | IC50 (MCF7)
COc1cc2c(cc1OCCCOc1ccc(OCCCOc3cc4c(cc3OC)C(=O)N3CCC[C@H]3C=N4)c3c1C(=O)c1ccccc1C3=O)N=C[C@@H]1CCCN1C2=O [Va, 1,4-Bis-{3-[7-methoxy-8-oxy-(11aS)-1,2,3,11atetrahydro-5H-pyrrolo [2,1-c][1,4]-benzodiazepin-5-one]propyloxy}anthracene-9,10-dione] | 600 nM | < 1000 nM | 500 nM | 600 nM | < 1000 nM | 800 nM | 600 nM
COc1cc2c(cc1OCCCCOc1ccc(OCCCCOc3cc4c(cc3OC)C(=O)N3CCC[C@H]3C=N4)c3c1C(=O)c1ccccc1C3=O)N=C[C@@H]1CCCN1C2=O [Vb, 1,4-Bis-{4-[7-methoxy-8-oxy-(11aS)-1,2,3,11atetrahydro-5H-pyrrolo [2,1-c][1,4]benzodiazepin-5-one]butyloxy}anthracene-9,10-dione] | 10000 nM | 10000 nM | – | 7000 nM | – | 9000 nM | 9000 nM
COc1cc2c(cc1OCCCCCOc1ccc(OCCCCCOc3cc4c(cc3OC)C(=O)N3CCC[C@H]3C=N4)c3c1C(=O)c1ccccc1C3=O)N=C[C@@H]1CCCN1C2=O [Vc, 1,4-Bis-{5-[7-methoxy-8-oxy-(11aS)-1,2,3,11atetrahydro-5H-pyrrolo [2,1-c][1,4]benzodiazepin-5-one]pentyloxy}anthracene-9,10-dione] | 600 nM | < 1000 nM | 1500 nM | 1000 nM | 1400 nM | 800 nM | 1200 nM
